Where a name gives a salt, the structure may show the parent alone.

As usually defined, the IC50 is the midpoint of a concentration-inhibition curve. Read a high IC50 as weaker potency.

The test addresses T1, ZAP-70 (Homo sapiens, UniProt P43403).
T1 construct: endogenous in cells; host or cells: cell lysate
T1 sequence (P43403 1-619): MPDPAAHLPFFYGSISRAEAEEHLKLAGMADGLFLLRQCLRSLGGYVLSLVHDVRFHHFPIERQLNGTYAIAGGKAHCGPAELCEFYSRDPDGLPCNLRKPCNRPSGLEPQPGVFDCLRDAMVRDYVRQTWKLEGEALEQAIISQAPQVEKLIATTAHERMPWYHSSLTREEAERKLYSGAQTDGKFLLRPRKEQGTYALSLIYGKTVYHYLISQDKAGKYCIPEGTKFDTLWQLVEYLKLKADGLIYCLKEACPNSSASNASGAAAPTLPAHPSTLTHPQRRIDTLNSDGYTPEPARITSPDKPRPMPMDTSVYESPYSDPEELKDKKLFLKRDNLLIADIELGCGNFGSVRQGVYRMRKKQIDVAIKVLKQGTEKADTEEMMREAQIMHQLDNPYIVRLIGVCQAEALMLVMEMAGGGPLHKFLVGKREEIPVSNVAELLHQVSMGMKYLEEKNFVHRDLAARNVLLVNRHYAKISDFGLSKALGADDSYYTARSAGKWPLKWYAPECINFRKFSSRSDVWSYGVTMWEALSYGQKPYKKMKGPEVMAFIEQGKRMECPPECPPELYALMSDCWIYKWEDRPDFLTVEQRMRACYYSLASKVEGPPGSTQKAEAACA
The test can be described thus: ZAP-70 kinobeads assay. The following applies: competition with immobilized aminopyrido-pyrimidine ligand 24 in cell lysate; ZAP-70 detected by dot blot. The class given is binding. As to the method:
The compounds of the present invention as described in the previous examples can be tested in the ZAP-70 kinobeads assay as described (EP-A 1862802 and WO-A 2007/137867). Briefly, test compounds (at various concentrations) and the affinity matrix with the immobilized aminopyrido-pyrimidine ligand 24 are added to cell lysate aliquots and allowed to bind to the proteins in the lysate sample. After the incubation time the beads with captured proteins are separated from the lysate. Bound proteins are then eluted and the presence ZAP-70 is detected and quantified using a specific antibody in a dot blot procedure and the Odyssey infrared detection system. Conventionally, ZAP-70 kinase activity can be measured using purified or recombinant enzyme in a solution-based assay with protein or peptide substrates (Isakov et al., 1996, J. Biol. Chem. 271(26), 15753-15761; Moffat et al., 1999, Bioorg. Med. Chem. Letters 9, 3351-3356).
Consider `CN(c1ccccc1Nc1nc(Nc2ccc(OCCN3CCOCC3)cc2)ncc1F)S(C)(=O)=O` [Example 111, N-(2-(5-fluoro-2-(4-(2-morpholinoethoxy)phenylamino)pyrimidin-4-ylamino)phenyl)-N-methylmethanesulfonamide], for which the IC50 is 100 to 1000 nM. As for `CCCOc1cccc(Nc2ncc(F)c(Nc3cccc(C)c3NS(C)(=O)=O)n2)c1` [Example 122, N-(2-(5-fluoro-2-(3-propoxyphenylamino)pyrimidin-4-ylamino)-6-methylphenyl)methanesulfonamide], the IC50 lay within 1000 to 10000 nM. With `CS(=O)(=O)Nc1ccccc1Nc1nc(Nc2cccc(F)c2)ncc1F` [Example 6, N-(2-(5-fluoro-2-(3-fluorophenylamino)pyrimidin-4-ylamino)phenyl)methanesulfonamide], the IC50 is 1000 to 10000 nM. In turn, `CS(=O)(=O)Nc1ccccc1Nc1nc(Nc2ccc(-n3cnnn3)cc2)ncc1Cl` [Example 214, N-(2-(2-(4-(1H-tetrazol-1-yl)phenylamino)-5-chloropyrimidin-4-ylamino)phenyl)methanesulfonamide] came in with an IC50 of 100 to 1000 nM. As to `CS(=O)(=O)Nc1ccccc1Nc1nc(Nc2ccc(-n3cnnn3)cc2)ncc1F` [Example 195, N-(2-(2-(4-(1H-tetrazol-1-yl)phenylamino)-5-fluoropyrimidin-4-ylamino)phenyl)methanesulfonamide], the IC50 is 1000 to 10000 nM. The result for `COc1ccc(Nc2ncc(F)c(Nc3ccccc3N(C)S(C)(=O)=O)n2)cc1OC` [Example 109, N-(2-(2-(3,4-dimethoxyphenylamino)-5-fluoropyrimidin-4-ylamino)phenyl)-N-methylmethanesulfonamide] reads 100 to 1000 nM; that for `CS(=O)(=O)Nc1ccccc1Nc1nc(Nc2cccc(C(=O)N3CCCC3)c2)ncc1F` [Example 82, N-(2-(5-fluoro-2-(3-(pyrrolidine-1-carbonyl)phenylamino)pyrimidin-4-ylamino)phenyl)methanesulfonamide], 100 to 1000 nM; that for `CS(=O)(=O)Nc1ccccc1Nc1nc(Nc2cccc(OC(F)F)c2)ncc1Br` [Example 103, N-(2-(5-bromo-2-(3-(difluoromethoxy)phenylamino)pyrimidin-4-ylamino)phenyl)methanesulfonamide], 100 to 1000 nM. As to `Cc1ccc(C)n1-c1cccc(Nc2ncc(F)c(Nc3ccccc3NS(C)(=O)=O)n2)c1` [Example 202, N-(2-(2-(3-(2,5-dimethyl-1H-pyrrol-1-yl)phenylamino)-5-fluoropyrimidin-4-ylamino)phenyl)methanesulfonamide], the IC50 was 1000 to 10000 nM. For `CS(=O)(=O)Nc1ccccc1Nc1nc(Nc2cccc(Cl)c2)ncc1F` [Example 12, N-(2-(2-(3-chlorophenylamino)-5-fluoropyrimidin-4-ylamino)phenyl)methanesulfonamide] the value was 1000 to 10000 nM; for `COc1cc(Nc2ncc(F)c(Nc3cccc(C)c3N(C)S(C)(=O)=O)n2)cc(OC)c1OC` [Example 181, N-(2-(5-fluoro-2-(3,4,5-trimethoxyphenylamino)pyrimidin-4-ylamino)-6-methylphenyl)-N-methylmethanesulfonamide], 100 to 1000 nM. The result for `Cc1nnnn1-c1cccc(Nc2ncc(F)c(Nc3ccccc3NS(C)(=O)=O)n2)c1` [Example 194, N-(2-(5-fluoro-2-(3-(5-methyl-1H-tetrazol-1-yl)phenylamino)pyrimidin-4-ylamino)phenyl)methanesulfonamide] reads 1000 to 10000 nM. As to `Cc1cc(C)n(-c2ccc(Nc3ncc(Cl)c(Nc4ccccc4NS(C)(=O)=O)n3)cc2)n1` [Example 210, N-(2-(5-chloro-2-(4-(3,5-dimethyl-1H-pyrazol-1-yl)phenylamino)pyrimidin-4-ylamino)phenyl)methanesulfonamide], the IC50 lay in the range of 100 to 1000 nM. The result for `CC(C)OC(=O)COc1ccc(Nc2ncc(Cl)c(Nc3ccccc3NS(C)(=O)=O)n2)cc1` [Example 143, Isopropyl 2-(4-(5-chloro-4-(2-(methylsulfonamido)phenylamino)pyrimidin-2-ylamino)-phenoxy)acetate hydrochloride] reads 100 to 1000 nM; that for `COc1ccc(Nc2nc(Nc3cc(OC)c(OC)c(OC)c3)ncc2Cl)c(NS(C)(=O)=O)c1F` [Example 187, N-(6-(5-chloro-2-(3,4,5-trimethoxyphenylamino)pyrimidin-4-ylamino)-2-fluoro-3-methoxyphenyl)methanesulfonamide], 100 to 1000 nM; that for `COc1ccc(Nc2ncc(F)c(Nc3ccccc3NS(C)(=O)=O)n2)cc1Cl` [Example 19, N-(2-(2-(3-chloro-4-methoxyphenylamino)-5-fluoropyrimidin-4-ylamino)phenyl)methanesulfonamide], 1000 to 10000 nM. `COc1cc(Nc2ncc(F)c(Nc3ccccc3NS(=O)(=O)CCN(C)C)n2)cc(OC)c1OC` [Example 61, 2-(Dimethylamino)-N-(2-(5-fluoro-2-(3,4,5-trimethoxyphenylamino)pyrimidin-4-ylamino)phenyl)ethanesulfonamide] showed an IC50 of 1000 to 10000 nM. The result for `CS(=O)(=O)Nc1ccccc1Nc1nc(Nc2ccc(OC(F)F)cc2)ncc1F` [Example 27, N-(2-(2-(4-(difluoromethoxy)phenylamino)-5-fluoropyrimidin-4-ylamino)phenyl)methanesulfonamide] reads 1000 to 10000 nM. For the compound `Cc1nnc(-c2cccc(Nc3ncc(F)c(Nc4ccccc4NS(C)(=O)=O)n3)c2)[nH]1` [Example 24, N-(2-(5-fluoro-2-(3-(5-methyl-4H-1,2,4-triazol-3-yl)phenylamino)pyrimidin-4-ylamino)phenyl)methanesulfonamide], the half-inhibitory concentration (IC50) was in the range of 1000 to 10000 nM.

In the case of `Cc1n[nH]c(-c2ccc(Nc3ncc(F)c(Nc4ccccc4NS(C)(=O)=O)n3)cc2)n1` [Example 191, N-(2-(5-fluoro-2-(4-(3-methyl-1H-1,2,4-triazol-5-yl)phenylamino)pyrimidin-4-ylamino)phenyl)methanesulfonamide], the IC50 fell in the range of 1000 to 10000 nM. Compound `CCOc1cccc(Nc2ncc(F)c(Nc3ccccc3NS(C)(=O)=O)n2)c1` [Example 13, N-(2-(2-(3-ethoxyphenylamino)-5-fluoropyrimidin-4-ylamino)phenyl)methanesulfonamide] yielded an IC50 of 1000 to 10000 nM. In turn, `Cc1n[nH]c(-c2cccc(Nc3ncc(Cl)c(Nc4ccccc4NS(C)(=O)=O)n3)c2)n1` [Example 213, N-(2-(5-chloro-2-(3-(3-methyl-1H-1,2,4-triazol-5-yl)phenylamino)pyrimidin-4-ylamino)phenyl)methanesulfonamide] came in with an IC50 of 100 to 1000 nM. Turning to `CS(=O)(=O)Nc1ccccc1Nc1nc(Nc2cccc(OCCC3CCCN3)c2)ncc1Cl` (centres unmarked) [Example 131, N-(2-(5-chloro-2-(3-(2-(pyrrolidin-2-yl)ethoxy)phenylamino)pyrimidin-4-ylamino)phenyl)methanesulfonamide], the IC50 was less than 100 nM. The result for `COc1cc(Nc2ncc(F)c(Nc3ccc(OCCCN4CCCCC4)cc3NS(C)(=O)=O)n2)cc(OC)c1OC` [Example 185, N-(2-(5-fluoro-2-(3,4,5-trimethoxyphenylamino)pyrimidin-4-ylamino)-5-(3-(piperidin-1-yl)propoxy)phenyl)methanesulfonamide] reads 100 to 1000 nM; that for `CS(=O)(=O)Nc1ccccc1Nc1nc(Nc2cccc(-n3cnnn3)c2)ncc1F` [Example 188, N-(2-(2-(3-(1H-tetrazol-1-yl)phenylamino)-5-fluoropyrimidin-4-ylamino)phenyl)methanesulfonamide], 1000 to 10000 nM; that for `COc1cc(Nc2ncc(F)c(Nc3ccccc3N(C)S(C)(=O)=O)n2)cc(OC)c1OC` [Example 71, N-(2-(5-fluoro-2-(3,4,5-trimethoxyphenylamino)pyrimidin-4-ylamino)phenyl)-N-methylmethanesulfonamide], 100 to 1000 nM. `CCN(c1ccccc1Nc1nc(Nc2ccc(OCCN3CCOCC3)cc2)ncc1F)S(C)(=O)=O` [Example 159, N-ethyl-N-(2-(5-fluoro-2-(4-(2-morpholinoethoxy)phenylamino)pyrimidin-4-ylamino)phenyl)methanesulfonamide] came in with an IC50 of 100 to 1000 nM. For `CS(=O)(=O)Nc1ccccc1Nc1nc(Nc2cccc(OCC(=O)O)c2)ncc1Cl` [Example 149, 2-(3-(5-chloro-4-(2-(methylsulfonamido)phenylamino)pyrimidin-2-ylamino)phenoxy)acetic acid hydrochloride] the value was 100 to 1000 nM; for `COc1cc(Nc2ncc(F)c(Nc3cc(C)cc(C)c3NS(C)(=O)=O)n2)cc(OC)c1OC` [Example 186, N-(2-(5-fluoro-2-(3,4,5-trimethoxyphenylamino)pyrimidin-4-ylamino)-4,6-dimethylphenyl)methanesulfonamide], 1000 to 10000 nM.
